Source: patent US10815238B2, “Antimicrobial compounds and methods of making and using the same” (BIOVERSYS AG, priority 2013, dated 2020)

What was measured:
[1] = tested on: Staphylococcus aureus (S. aureus) 11540 strain; assay: Standard microdilution assay, MIC against S. aureus 11540; assay type: cell-based; conditions: S. aureus 11540 strain, standard microdilution assay, cutoff 16 micrograms/mL, read-out: MIC S. aureus
Outline: (§1)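 Scoring as + or − used a 16 micrograms/mL cutoff on minimum inhibitory concentrations. These came from CLSI-standard microdilution, quality-controlled with reference strains tested in the same run.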

[2] = tested on: Eschericia coli (E. coli) strain ATCC25922; assay: Standard microdilution assay, MIC against E. coli ATCC25922; assay type: cell-based; conditions: Escherichia coli; E. coli strain ATCC25922, standard microdilution assay; cutoff 16 micrograms/mL; read-out: MIC E. Coli
Outline: as §1

Row | SMILES | MIC [1] [µg/mL] | MIC [2] [µg/mL]
1 | C[C@H](N)CCCc1cc(Cl)c(F)c(-c2cc3cn(-c4ccc([C@@H]5CCC[C@@H](CCCNC(=N)N)N5)cc4)c(=O)nc3[nH]2)c1 [Compound 556] | < 16 | < 16
2 | C[C@H](N)CCCc1cc(Cl)c(F)c(-c2cc3cn(-c4ccc(CNC5CC(NC(=N)N)C5)cc4)c(=O)nc3[nH]2)c1 (some centres unmarked) [Compound 563] | < 16 | < 16
3 | C[C@H](N)CCCc1cc(OC(F)(F)F)c(F)c(-c2cc3cn(-c4ccc([C@@H](N)CCCNC(=N)N)cc4)c(=O)nc3[nH]2)c1 [Compound 413] | < 16 | < 16
4 | C[C@@H](CN)CN1CC[C@@H](c2cc3cn(-c4ccc(C(=N)NC5CCCC5)cc4)c(=O)nc3[nH]2)C1 [Compound 580] | > 16 | > 16
5 | C[C@H](N)CCCc1cc(OC(F)(F)F)c(F)c(-c2cc3cn(-c4ccc([C@@H]5COC[C@H](CCN)N5)cc4)c(=O)nc3[nH]2)c1 [Compound 358] | < 16 | < 16
6 | C[C@H](N)CCCc1cc(Cl)c(F)c(-c2cc3cn(-c4ccc([C@H](C)NCC[C@@H](Cn5cc(CN)nn5)NC(=N)N)cc4)c(=O)nc3[nH]2)c1 [Compound 323] | < 16 | < 16
7 | C[C@H](N)CCCc1cc(Cl)c(F)c(-c2cc3cn(-c4ccc([C@@H]5CCC[C@@H](CCc6ncc[nH]6)N5)cc4)c(=O)nc3[nH]2)c1 [Compound 508] | < 16 | < 16
8 | C[C@H](N)CCCc1cc(Cl)c(F)c(-c2cc3cn(-c4ccc(C(=N)NCCCNC(=N)N)cc4)c(=O)nc3[nH]2)c1 [Compound 477] | < 16 | < 16
9 | C[C@H](N)CCCc1cc(OC(F)(F)F)c(F)c(-c2cc3cn(-c4ccc([C@H](N)CCN)cc4)c(=O)nc3[nH]2)c1 [Compound 441] | < 16 | < 16
10 | C[C@H](N)CCCc1cc(Cl)c(F)c(-c2cc3cn(-c4ccc([C@H]5CC(CCNC(=N)N)CN5)cc4)c(=O)nc3[nH]2)c1 (some centres unmarked) [Compound 469] | < 16 | < 16
11 | C=C[C@H](CCNC(=N)N)N[C@@H](C)c1ccc(-n2cc3cc(-c4cc(CCC[C@H](C)N)cc(Cl)c4F)[nH]c3nc2=O)cc1 [Compound 382] | < 16 | < 16
12 | C[C@H](N)CCCc1cc(Cl)c(F)c(-c2cc3cn(-c4ccc(C(=N)NCC[C@H](C)N)cc4)c(=O)nc3[nH]2)c1 [Compound 512] | < 16 | < 16
13 | C[C@H](N)CCCc1cccc(-c2cc3cn(-c4ccc(CNCCCNC(=N)N)cc4)c(=O)nc3[nH]2)c1 [Compound 520] | < 16 | < 16
14 | C[C@@H](CN)CN1CC[C@@H](c2cc3cn(-c4ccc(C(=N)NCC[C@H](C)N)cc4)c(=O)nc3[nH]2)C1 [Compound 581] | < 16 | < 16
15 | C[C@H](N)CCCc1cc(Cl)c(F)c(-c2cc3cn(-c4ccc([C@@H]5CCC[C@@H](CCn6cnc([N+](=O)[O-])c6)N5)cc4)c(=O)nc3[nH]2)c1 [Compound 548] | < 16 | > 16
16 | C[C@H](N)CCCc1cc(Cl)c(F)c(-c2cc3cn(-c4ccc([C@@H]5CCC[C@@H](CCCN)N5)cc4)c(=O)nc3[nH]2)c1 [Compound 557] | < 16 | < 16
17 | C[C@H](N)CCCc1cc(Cl)c(F)c(-c2cc3cn(-c4ccc([C@H](C)N(C=O)CCCNC(=N)N)cc4)c(=O)nc3[nH]2)c1 [Compound 400] | < 16 | < 16
18 | N=C(N)NCC[C@H]1CC[C@H](c2ccc(-n3cc4cc(-c5cc(CCC[C@@H](N)CO)cc(Cl)c5F)[nH]c4nc3=O)cc2)N1 [Compound 482] | < 16 | < 16
19 | C[C@H](N)CCCc1cc(OC(F)(F)F)c(F)c(-c2cc3cn(-c4ccc(CNCC[C@@H](CN)NC(=N)N)cc4)c(=O)nc3[nH]2)c1 [Compound 376] | < 16 | < 16
20 | C[C@H](N)CCCc1cc(Cl)c(F)c(-c2cc3cn(-c4ccc([C@H]5COC[C@@H](CO)N5)cc4)c(=O)nc3[nH]2)c1 [Compound 390] | > 16 | > 16
21 | C[C@H](N)CCCc1cc(Cl)c(F)c(-c2cc3cn(-c4ccc([C@@H]5CCC[C@@H](Cc6nnc[nH]6)N5)cc4)c(=O)nc3[nH]2)c1 [Compound 496] | > 16 | > 16
22 | C[C@H](N)CCN1CC[C@@H](c2cc3cn(-c4ccc(CNCCCNC(=N)N)cc4)c(=O)nc3[nH]2)C1 [Compound 572] | < 16 | < 16
23 | C=C[C@@H](C[C@H](C)NCc1ccc(-n2cc3cc(-c4cc(CCC[C@H](C)N)cc(Cl)c4F)[nH]c3nc2=O)cc1)NC(=N)N [Compound 336] | < 16 | < 16
24 | N=C(N)NCC[C@@H]1CCC[C@@H](c2ccc(-n3cc4cc(-c5cc(CCC[C@@H](N)CO)cc(Cl)c5F)[nH]c4nc3=O)cc2)N1 [Compound 484] | < 16 | < 16
25 | C[C@H](N)CCCc1cc(OC(F)(F)F)c(F)c(-c2cc3cn(-c4ccc([C@@H]5CC(CCN)CN5)cc4)c(=O)nc3[nH]2)c1 (some centres unmarked) [Compound 409] | < 16 | < 16

Row | SMILES | MIC [1] [µg/mL] | MIC [2] [µg/mL]
26 | CC(=O)NCC[C@@H]1CCC[C@@H](c2ccc(-n3cc4cc(-c5cc(CCC[C@H](C)N)cc(Cl)c5F)[nH]c4nc3=O)cc2)N1 [Compound 501] | > 16 | > 16
27 | CC#C[C@H](CCNC(=N)N)NCc1ccc(-n2cc3cc(-c4cc(CCC[C@H](C)N)cc(Cl)c4F)[nH]c3nc2=O)cc1 [Compound 506] | < 16 | < 16
28 | C[C@H](N)CCCc1cc(Cl)c(F)c(-c2cc3cn(-c4ccc([C@H](C)NCC[C@@H]5COC(=O)N5)cc4)c(=O)nc3[nH]2)c1 [Compound 386] | < 16 | < 16
29 | C[C@H](N)CCCc1cc(Cl)c(F)c(-c2cc3cn(-c4ccc([C@@H]5COC[C@H](CCN)N5)cc4)c(=O)nc3[nH]2)c1 [Compound 385] | < 16 | < 16
30 | C[C@H](N)CCCc1cc(Cl)c(F)c(-c2cc3cn(-c4ccc([C@@H]5COC[C@@H](CNC(=N)N)N5)cc4)c(=O)nc3[nH]2)c1 [Compound 465] | < 16 | < 16
31 | CC#C[C@@H](CCNC(=N)N)NCc1ccc(-n2cc3cc(-c4cc(CCC[C@H](C)N)cc(Cl)c4F)[nH]c3nc2=O)cc1 [Compound 507] | < 16 | < 16
32 | C=C[C@@H](CCNC(=N)N)NCc1ccc(-n2cc3cc(-c4cc(CCC[C@H](C)N)cc(Cl)c4F)[nH]c3nc2=O)cc1 [Compound 387] | < 16 | < 16
33 | C[C@H](N)CCCc1cc(OC(F)(F)F)c(F)c(-c2cc3cn(-c4ccc([C@@H](C)NCCCNC(=N)N)cc4)c(=O)nc3[nH]2)c1 [Compound 321] | < 16 | < 16
34 | C[C@H](N)CCCc1cc(Cl)c(F)c(-c2cc3cn(-c4ccc([C@@H]5COC[C@@H](CCN)N5)cc4)c(=O)nc3[nH]2)c1 [Compound 354] | < 16 | < 16
35 | C[C@H](N)CCCc1cc(OC(F)(F)F)c(F)c(-c2cc3cn(-c4ccc([C@H](C)NCC[C@H](CC(N)=O)NC(=N)N)cc4)c(=O)nc3[nH]2)c1 [Compound 344] | < 16 | < 16
36 | Cc1noc(C[C@@H]2CCC[C@@H](c3ccc(-n4cc5cc(-c6cc(CCC[C@H](C)N)cc(Cl)c6F)[nH]c5nc4=O)cc3)N2)n1 [Compound 497] | < 16 | > 16
37 | C[C@H](N)CCCc1cc(Cl)c(F)c(-c2cc3cn(-c4ccc(CN[C@H](C)C[C@@H](CCO)NC(=N)N)cc4)c(=O)nc3[nH]2)c1 [Compound 381] | < 16 | < 16
38 | C[C@H](N)CCCc1cc(Cl)c(F)c(-c2cc3cn(-c4ccc(C(=N)NC5CCCC5)cc4)c(=O)nc3[nH]2)c1 [Compound 505] | < 16 | < 16
39 | C[C@H](N)CCCc1cc(Cl)c(F)c(-c2cc3cn(-c4ccc([C@@H]5CC(CCNC(=N)N)CN5C(=N)N)cc4)c(=O)nc3[nH]2)c1 (some centres unmarked) [Compound 407] | < 16 | < 16
40 | C[C@H](N)CCCc1cc(-c2cc3cn(-c4ccc([C@@H]5CCC[C@@H](CCNC(=N)N)N5)cc4)c(=O)nc3[nH]2)cc(C(F)(F)F)c1 [Compound 486] | < 16 | < 16
41 | C[C@H](N)CCCc1cc(OC(F)(F)F)c(F)c(-c2cc3cn(-c4ccc(CN[C@@H](C)C[C@H](CCO)NC(=N)N)cc4)c(=O)nc3[nH]2)c1 [Compound 361] | < 16 | < 16
42 | C[C@H](NCCCNC(=N)N)c1ccc(-n2cc3cc(-c4cc(CCC[C@@H](N)CN=[N+]=[N-])cc(Cl)c4F)[nH]c3nc2=O)cc1 [Compound 326] | < 16 | < 16
43 | C[C@H](N)CCCc1cc(Cl)c(F)c(-c2cc3cn(-c4ccc(CN5CC[C@H](CN)NC5=N)cc4)c(=O)nc3[nH]2)c1 [Compound 417] | < 16 | < 16
44 | C[C@H](N)CCCc1cc(Cl)c(F)c(-c2cc3cn(-c4ccc([C@@H]5CCC[C@@H](CCc6c[nH]cn6)N5)cc4)c(=O)nc3[nH]2)c1 [Compound 549] | < 16 | < 16
45 | C[C@H](N)CCCc1cc(Cl)c(F)c(-c2cc3cn(-c4ccc([C@@H]5CCO[C@@H](CCN)C5)cc4)c(=O)nc3[nH]2)c1 [Compound 525] | < 16 | < 16
46 | C[C@H](N)CCCc1cc(Cl)c(F)c(-c2cc3cn(-c4ccc([C@@H]5CCC[C@@H](Cc6cnn[nH]6)N5)cc4)c(=O)nc3[nH]2)c1 [Compound 489] | > 16 | > 16
47 | C[C@H](N)CCCc1cc(Cl)c(F)c(-c2cc3cn(-c4ccc([C@@H]5CCC[C@@H](CNC(=N)N)N5)cc4)c(=O)nc3[nH]2)c1 [Compound 540] | < 16 | < 16
48 | C[C@H](N)CCCc1cc(OC(F)(F)F)c(F)c(-c2cc3cn(-c4ccc(C(=O)NCCCNC(=N)N)cc4)c(=O)nc3[nH]2)c1 [Compound 461] | < 16 | < 16
49 | C[C@H](NCCCNC(=N)N)c1ccc(-n2cc3cc(-c4cc([C@H]5CC[C@@H](CN)O5)cc(Cl)c4F)[nH]c3nc2=O)cc1 [Compound 445] | < 16 | < 16
